Laboratory results reported in the CheMixHub viscosity set.

Assay: xn = mol fraction of the nth substance listed

CC(C)C(C)O (stereo not given) + COc1ccccc1
viscosity [mPa·s], 101.33 kPa
Conditions	x2 = 0.1006	x2 = 0.2007	x2 = 0.3004	x2 = 0.4	x2 = 0.5008	x2 = 0.6009	x2 = 0.6997	x2 = 0.8003	x2 = 0.8998
303.15 K	2.405	1.858	1.476	1.223	1.067	0.981	0.937	0.919	0.913
313.15 K	1.731	1.397	1.157	0.991	0.889	0.832	0.808	0.799	0.794
323.15 K	1.273	1.066	0.925	0.83	0.771	0.736	0.718	0.707	0.699

CCCCOC(C)=O + CC#N
303.15 K, 101.33 kPa
Conditions	viscosity [mPa·s]
x2 = 0.0981	0.6208
x2 = 0.2003	0.5981
x2 = 0.3003	0.5737
x2 = 0.403	0.5485
x2 = 0.5026	0.5195
x2 = 0.5972	0.4884
x2 = 0.6977	0.4463
x2 = 0.7987	0.4071
x2 = 0.8985	0.3669

Oc1ccccc1Cl + Nc1ccccc1
101 kPa
Conditions	viscosity [mPa·s]
293.15 K, x1 = 0.1176	5.78
293.15 K, x1 = 0.2278	7.74
293.15 K, x1 = 0.3271	9.6
293.15 K, x1 = 0.3874	10.56
293.15 K, x1 = 0.4366	11.24
293.15 K, x1 = 0.4885	11.66
293.15 K, x1 = 0.5271	11.76
293.15 K, x1 = 0.5756	11.48
293.15 K, x1 = 0.6117	10.96
293.15 K, x1 = 0.7174	9.04
293.15 K, x1 = 0.8625	6.3
298 K, x1 = 0.1032	4.945
298 K, x1 = 0.2004	6.157
298 K, x1 = 0.3011	7.228
298 K, x1 = 0.4069	8.07
298 K, x1 = 0.5008	8.81
298 K, x1 = 0.6002	8
298 K, x1 = 0.7016	6.99
298 K, x1 = 0.7852	5.942
298 K, x1 = 0.9025	4.443
303 K, x1 = 0.1032	4.142
303 K, x1 = 0.2004	5.008
303 K, x1 = 0.3011	5.792
303 K, x1 = 0.4069	6.329
303 K, x1 = 0.5008	6.859
303 K, x1 = 0.6002	6.232
303 K, x1 = 0.7016	5.602
303 K, x1 = 0.7852	4.74
303 K, x1 = 0.9025	3.702
303.15 K, x1 = 0.1176	4.05
303.15 K, x1 = 0.2278	5.06
303.15 K, x1 = 0.3271	5.93
303.15 K, x1 = 0.3874	6.39
303.15 K, x1 = 0.4366	6.72
303.15 K, x1 = 0.4885	6.93
303.15 K, x1 = 0.5271	6.95
303.15 K, x1 = 0.5756	6.86
303.15 K, x1 = 0.6117	6.7
303.15 K, x1 = 0.7174	5.8
303.15 K, x1 = 0.8625	4.31
308 K, x1 = 0.1032	3.556
308 K, x1 = 0.2004	4.265
308 K, x1 = 0.3011	4.728
308 K, x1 = 0.4069	4.979
308 K, x1 = 0.5008	5.417
308 K, x1 = 0.6002	4.922
308 K, x1 = 0.7016	4.511
308 K, x1 = 0.7852	3.826
308 K, x1 = 0.9025	3.108
313 K, x1 = 0.1032	3.11
313 K, x1 = 0.2004	3.638
313 K, x1 = 0.3011	3.9
313 K, x1 = 0.4069	4.024
313 K, x1 = 0.5008	4.382
313 K, x1 = 0.6002	3.966
313 K, x1 = 0.7016	3.75
313 K, x1 = 0.7852	3.283
313 K, x1 = 0.9025	2.744
313.15 K, x1 = 0.1176	2.945
313.15 K, x1 = 0.2278	3.54
313.15 K, x1 = 0.3271	3.99
313.15 K, x1 = 0.3874	4.2
313.15 K, x1 = 0.4366	4.33
313.15 K, x1 = 0.4885	4.39
313.15 K, x1 = 0.5271	4.4
313.15 K, x1 = 0.5756	4.34
313.15 K, x1 = 0.6117	4.24
313.15 K, x1 = 0.7174	3.79
313.15 K, x1 = 0.8625	3.01
318 K, x1 = 0.1032	2.671
318 K, x1 = 0.2004	3.036
318 K, x1 = 0.3011	3.241
318 K, x1 = 0.4069	3.322
318 K, x1 = 0.5008	3.611
318 K, x1 = 0.6002	3.27
318 K, x1 = 0.7016	3.137
318 K, x1 = 0.7852	2.853
318 K, x1 = 0.9025	2.446

C=COC(C)=O + Cc1ccccc1C
viscosity [mPa·s], 101 kPa
Conditions	x1 = 0.1492	x1 = 0.2538	x1 = 0.3604	x1 = 0.4517	x1 = 0.5641	x1 = 0.6689	x1 = 0.7705	x1 = 0.8616	x1 = 0.9508
303.15 K	0.632	0.594	0.558	0.529	0.494	0.463	0.435	0.413	0.394
313.15 K	0.57	0.537	0.505	0.478	0.446	0.417	0.391	0.37	0.353

CCCN + COCCOCCOC
298.15 K, 101 kPa
Conditions	viscosity [mPa·s]
x1 = 0.0113	0.985
x2 = 0.0044	0.359
x2 = 0.0179	0.368
x2 = 0.0461	0.385
x2 = 0.0659	0.4
x2 = 0.0913	0.417
x2 = 0.1293	0.443
x2 = 0.1685	0.472
x2 = 0.1892	0.487
x2 = 0.2354	0.518
x2 = 0.2682	0.541
x2 = 0.2727	0.544
x2 = 0.315	0.575
x2 = 0.3201	0.579
x2 = 0.3647	0.613
x2 = 0.3683	0.615
x2 = 0.4079	0.644
x2 = 0.4628	0.679
x2 = 0.5243	0.721
x2 = 0.5823	0.757
x2 = 0.6408	0.796
x2 = 0.7358	0.84
x2 = 0.79	0.873
x2 = 0.8565	0.908
x2 = 0.897	0.935
x2 = 0.9375	0.955

C=COC(C)=O + CCO
303.15 K, 101.33 kPa
Conditions	viscosity [mPa·s]
x1 = 0.0998	0.787
x1 = 0.2001	0.651
x1 = 0.2995	0.564
x1 = 0.4007	0.501
x1 = 0.5002	0.457
x1 = 0.599	0.425
x1 = 0.7013	0.402
x1 = 0.8005	0.386
x1 = 0.9002	0.378

CCCCCCCCCCCCCCCCCCCC + CCCCCCC
viscosity [mPa·s], 101.3 kPa
Conditions	x1 = 0.2	x1 = 0.4	x1 = 0.499	x1 = 0.597	x1 = 0.796
293.2 K	0.9382	–	–	–	–
303.2 K	0.8194	1.567	2.02	–	–
313.2 K	0.7187	1.327	1.705	2.145	2.989

CCCCOC(C)=O + CCCCCCCCCC
298.15 K, 101.3 kPa
Conditions	viscosity [mPa·s]
x1 = 0.3547	0.7515
x1 = 0.4366	0.7352
x1 = 0.5375	0.7168
x1 = 0.6473	0.7018
x1 = 0.7119	0.6958
x1 = 0.8212	0.6854
x1 = 0.9331	0.6851

C=COC(C)=O + CCCCCCCCCCO
303.15 K, 101.33 kPa
Conditions	viscosity [mPa·s]
x1 = 0.1013	6.774
x1 = 0.1998	4.804
x1 = 0.3007	3.437
x1 = 0.3991	2.488
x1 = 0.5006	1.793
x1 = 0.6004	1.31
x1 = 0.6957	0.952
x1 = 0.8003	0.682
x1 = 0.904	0.489

CCCN + CCC(C)(C)O
Conditions	viscosity [mPa·s]
308.15 K, 101 kPa, x2 = 0.9498	2.305

CCCCOC(C)=O + CN1CCCC1=O
viscosity [mPa·s], 101 kPa
Conditions	x2 = 0.1327	x2 = 0.256	x2 = 0.3711	x2 = 0.4785	x2 = 0.5792	x2 = 0.6737	x2 = 0.7626	x2 = 0.8463	x2 = 0.9253
303.15 K	0.801	0.941	1.061	1.165	1.258	1.339	1.405	1.463	1.512
308.15 K	0.737	0.861	0.968	1.059	1.143	1.213	1.273	1.325	1.37
313.15 K	0.69	0.805	0.905	0.991	1.065	1.13	1.187	1.236	1.28
318.15 K	0.642	0.745	0.834	0.911	0.978	1.037	1.088	1.131	1.173

CCCCOC(C)=O + CCCCCO
viscosity [mPa·s], 101 kPa
Conditions	x1 = 0.0963	x1 = 0.2032	x1 = 0.2987	x1 = 0.4058	x1 = 0.4868	x1 = 0.5981	x1 = 0.7048	x1 = 0.7976	x1 = 0.8954
298.15 K	2.974	2.512	2.15	1.797	1.561	1.284	1.059	0.907	0.769
303.15 K	2.593	2.191	1.886	1.573	1.37	1.14	0.963	0.846	0.723
308.15 K	2.287	1.933	1.669	1.396	1.223	1.025	0.875	0.776	0.678
313.15 K	2.018	1.714	1.483	1.261	1.107	0.941	0.809	0.717	0.639

C=COC(C)=O + CCc1ccccc1
viscosity [mPa·s], 101 kPa
Conditions	x1 = 0.1246	x1 = 0.2478	x1 = 0.3516	x1 = 0.4658	x1 = 0.576	x1 = 0.6587	x1 = 0.7601	x1 = 0.8593	x1 = 0.9467
303.15 K	0.556	0.523	0.499	0.475	0.453	0.439	0.422	0.408	0.397
313.15 K	0.506	0.473	0.45	0.426	0.407	0.394	0.379	0.364	0.352

OCCc1ccccc1 + c1ccccc1
293.15 K, 101.32 kPa
Conditions	viscosity [mPa·s]
x1 = 0.01771	0.6624
x1 = 0.04031	0.6965
x1 = 0.0739	0.7584
x1 = 0.1095	0.8402
x1 = 0.1585	0.985

CCCCOC(C)=O + COCCO
viscosity [mPa·s], 101 kPa
Conditions	x2 = 0.0967	x2 = 0.1995	x2 = 0.2988	x2 = 0.3986	x2 = 0.4983	x2 = 0.6028	x2 = 0.697	x2 = 0.7987	x2 = 0.9012
298.15 K	0.703	0.736	0.787	0.841	0.922	1.01	1.13	1.285	1.48
303.15 K	0.656	0.686	0.731	0.78	0.849	0.928	1.034	1.17	1.34
308.15 K	0.615	0.641	0.68	0.723	0.785	0.855	0.948	1.066	1.217
